Our source for the IC50 and MIC values is patent US20240270762A1, “PENICILLIN-BINDING PROTEIN INHIBITORS” (priority 2021, published 2024).

Assay [1] addresses T1, PBP1a from Acinetobacter baumannii (ATCC 19606) (Acinetobacter baumannii, UniProt A0ABX6CK30).
T1 sequence (A0ABX6CK30 1-851): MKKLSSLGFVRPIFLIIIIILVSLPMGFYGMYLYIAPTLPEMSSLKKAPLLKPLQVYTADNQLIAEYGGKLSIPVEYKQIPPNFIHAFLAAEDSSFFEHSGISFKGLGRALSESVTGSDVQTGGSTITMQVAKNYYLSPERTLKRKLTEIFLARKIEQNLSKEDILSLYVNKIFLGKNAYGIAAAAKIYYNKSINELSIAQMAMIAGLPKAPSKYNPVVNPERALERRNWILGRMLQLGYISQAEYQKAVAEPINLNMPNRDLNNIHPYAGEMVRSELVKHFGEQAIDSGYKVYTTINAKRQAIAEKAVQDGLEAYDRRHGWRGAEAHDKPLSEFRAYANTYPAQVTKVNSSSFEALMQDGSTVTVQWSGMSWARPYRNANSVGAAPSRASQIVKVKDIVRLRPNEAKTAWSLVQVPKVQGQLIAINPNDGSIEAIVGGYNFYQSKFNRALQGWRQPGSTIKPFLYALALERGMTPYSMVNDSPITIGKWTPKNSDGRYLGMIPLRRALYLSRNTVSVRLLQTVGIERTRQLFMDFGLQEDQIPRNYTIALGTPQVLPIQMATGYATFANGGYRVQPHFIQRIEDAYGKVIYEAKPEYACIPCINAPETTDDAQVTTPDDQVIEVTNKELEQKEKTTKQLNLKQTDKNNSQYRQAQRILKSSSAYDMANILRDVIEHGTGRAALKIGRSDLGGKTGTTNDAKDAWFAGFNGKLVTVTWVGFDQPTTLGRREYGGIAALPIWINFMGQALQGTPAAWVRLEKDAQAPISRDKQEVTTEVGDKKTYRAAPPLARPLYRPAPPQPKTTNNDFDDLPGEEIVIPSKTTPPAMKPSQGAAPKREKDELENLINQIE
Briefly: Bocillin-FL fluorescence polarization competition binding, A. baumannii PBP1a. The following applies: fluorescence polarization competition binding assay using Bocillin-FL; read-out: A. baumannii PBP1a Potency. In a few lines: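 Purified PBPs pre-incubated with inhibitor (E. coli PBP3 1.5 μM, 30 min; P. aeruginosa PBP3 0.75 μM, A. baumannii PBP1a 1 μM and PBP3 0.2 μM, 15 min), then Bocillin-FL 0.1 μM (0.05 μM for PBP1a) added; FP read up to 60 min. EC50 = concentration halving bound Bocillin-FL.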
For orientation: Polarisation of emitted light reports the rotation of a fluorescent probe.

The next assay concerns A. baumannii ATCC 17978. Description: microbe, parasite or virus in culture. The assay is classed as cell-based. The following applies: Acinetobacter baumannii, ATCC17978, read-out: MIC, A. baumannii ATCC 17978.
The next assay deals with P. aeruginosa CDC-0054. Description: microbe, parasite or virus in culture. Format: cell-based. The following applies: Pseudomonas aeruginosa, CDC0054, read-out: Minimum inhibitory concentration, P. aeruginosa CDC-0054.
For a further assay, the system named is A. baumannii CDC-0045. Description: microbe, parasite or virus in culture. The assay is classed as cell-based. The following applies: Acinetobacter baumannii, CDC0045, read-out: MIC, A. baumannii CDC-0045.
The subject of assay [2] is N. gonorrhoeae ATCC 49226. Description: Liquid broth MIC in Fastidious broth. The following applies: Neisseria gonorrhoeae, ATCC49226, read-out: Minimum Inhibitory Concentration (MIC), N. gonorrhoeae ATCC 49226.

pIC50: −log10 of the molar value. Values after ≈ are worked out from the molar mass of the structure shown. Some results are limits rather than exact numbers.

Take `O=C(CN1CCN(C(=O)NC(C(=O)N[C@H]2Cc3ccc(F)c(C(=O)O)c3OB2O)c2cc(F)c(O)c(O)c2Cl)C(=O)C1=O)Nc1ccc(O)cc1` (stereo partly drawn) [Example 230, (3R)-3-(2-(2-chloro-5-fluoro-3,4-dihydroxyphenyl)-2-(4-(2-((4-hydroxyphenyl)amino)-2-oxoethyl)-2,3-dioxopiperazine-1-carboxamido)acetamido)-7-fluoro-2-hydroxy-3,4-dihydro-2H-benzo[e][1,2]oxaborinine-8-carboxylic acid]: the pIC50 in assay [1] was under 3.60. In addition, the MIC is under 1 µg/mL with A. baumannii ATCC 17978, under 1 µg/mL with P. aeruginosa CDC-0054, under 1 µg/mL in the assay with A. baumannii CDC-0045 and 4 to 8 µg/mL (≈ 5.47 to 10.9 µM) in assay [2].
Take `O=C(CN1CCN(C(=O)NC(C(=O)N[C@H]2Cc3ccc(F)c(C(=O)O)c3OB2O)c2cc(F)c(O)c(O)c2Cl)C(=O)C1=O)Nc1cccc(O)c1` (stereo partly drawn) [Example 231, (3R)-3-(2-(2-chloro-5-fluoro-3,4-dihydroxyphenyl)-2-(4-(2-((3-hydroxyphenyl)amino)-2-oxoethyl)-2,3-dioxopiperazine-1-carboxamido)acetamido)-7-fluoro-2-hydroxy-3,4-dihydro-2H-benzo[e][1,2]oxaborinine-8-carboxylic acid]: in assay [1], the pIC50 is under 3.60. For the same compound, the MIC in the assay with A. baumannii ATCC 17978 was under 1 µg/mL; in the assay with P. aeruginosa CDC-0054 it was 2 to 4 µg/mL (≈ 2.73 to 5.47 µM); in the assay on A. baumannii CDC-0045, 2 to 4 µg/mL (≈ 2.73 to 5.47 µM); in assay [2], 16 to 32 µg/mL (≈ 21.9 to 43.7 µM).
On to `O=C(CN1CCN(C(=O)NC(C(=O)N[C@H]2Cc3ccc(F)c(C(=O)O)c3OB2O)c2cc(F)c(O)c(O)c2Cl)C(=O)C1=O)Nc1ccccc1` (stereo partly drawn) [Example 232, (3R)-3-(2-(2-chloro-5-fluoro-3,4-dihydroxyphenyl)-2-(2,3-dioxo-4-(2-oxo-2-(phenylamino)ethyl)piperazine-1-carboxamido)acetamido)-7-fluoro-2-hydroxy-3,4-dihydro-2H-benzo[e][1,2]oxaborinine-8-carboxylic acid], for which, in assay [1], the pIC50 is under 3.60. Also, the MIC in the assay with A. baumannii ATCC 17978 was in the range of 2 to 4 µg/mL (≈ 2.79 to 5.59 µM); in the assay on P. aeruginosa CDC-0054, 2 to 4 µg/mL (≈ 2.79 to 5.59 µM); in the assay with A. baumannii CDC-0045 it was 8 to 16 µg/mL (≈ 11.2 to 22.4 µM); in assay [2] it was 16 to 32 µg/mL (≈ 22.4 to 44.7 µM).
On to `O=C(CN1CCN(C(=O)NC(C(=O)N[C@H]2Cc3ccc(F)c(C(=O)O)c3OB2O)c2cc(F)c(O)c(O)c2Cl)C(=O)C1=O)Nc1ccncc1` (stereo partly drawn) [Example 233, (3R)-3-(2-(2-chloro-5-fluoro-3,4-dihydroxyphenyl)-2-(2,3-dioxo-4-(2-oxo-2-(pyridin-4-ylamino)ethyl)piperazine-1-carboxamido)acetamido)-7-fluoro-2-hydroxy-3,4-dihydro-2H-benzo[e][1,2]oxaborinine-8-carboxylic acid], for which, in assay [1], the pIC50 is under 3.60. The MIC in the assay on A. baumannii ATCC 17978 is under 1 µg/mL; in the assay on P. aeruginosa CDC-0054, under 1 µg/mL; with A. baumannii CDC-0045, 2 to 4 µg/mL (≈ 2.79 to 5.58 µM); in assay [2], 4 to 8 µg/mL (≈ 5.58 to 11.2 µM).
In the case of `O=C(CN1CCN(C(=O)NC(C(=O)N[C@H]2Cc3ccc(F)c(C(=O)O)c3OB2O)c2cc(F)c(O)c(O)c2Cl)C(=O)C1=O)Nc1cccnc1` (stereo partly drawn) [Example 234, (3R)-3-(2-(2-chloro-5-fluoro-3,4-dihydroxyphenyl)-2-(2,3-dioxo-4-(2-oxo-2-(pyridin-3-ylamino)ethyl)piperazine-1-carboxamido)acetamido)-7-fluoro-2-hydroxy-3,4-dihydro-2H-benzo[e][1,2]oxaborinine-8-carboxylic acid], the pIC50 in assay [1] is under 3.60. Besides, the MIC in the assay on A. baumannii ATCC 17978 was under 1 µg/mL; in the assay with P. aeruginosa CDC-0054 it was 2 to 4 µg/mL (≈ 2.79 to 5.58 µM); in the assay on A. baumannii CDC-0045, under 1 µg/mL; in assay [2], 4 to 8 µg/mL (≈ 5.58 to 11.2 µM).
Consider `O=C(CN1CCN(C(=O)NC(C(=O)N[C@H]2Cc3ccc(F)c(C(=O)O)c3OB2O)c2cc(F)c(O)c(O)c2Cl)C(=O)C1=O)Nc1nccs1` (stereo partly drawn) [Example 235, (3R)-3-(2-(2-chloro-5-fluoro-3,4-dihydroxyphenyl)-2-(2,3-dioxo-4-(2-oxo-2-(thiazol-2-ylamino)ethyl)piperazine-1-carboxamido)acetamido)-7-fluoro-2-hydroxy-3,4-dihydro-2H-benzo[e][1,2]oxaborinine-8-carboxylic acid], for which the pIC50 in assay [1] was under 3.60. For the same compound, the MIC in the assay with A. baumannii ATCC 17978 is under 1 µg/mL; with P. aeruginosa CDC-0054, 8 to 16 µg/mL (≈ 11.1 to 22.1 µM); in the assay with A. baumannii CDC-0045 it was 2 to 4 µg/mL (≈ 2.77 to 5.53 µM); in assay [2], 16 to 32 µg/mL (≈ 22.1 to 44.3 µM).
On the same counts, the results for `O=C(CN1CCN(C(=O)NC(C(=O)N[C@H]2Cc3ccc(F)c(C(=O)O)c3OB2O)c2cc(F)c(O)c(O)c2Cl)C(=O)C1=O)NCc1cccc(O)c1` (stereo partly drawn) [Example 237, (3R)-3-(2-(2-chloro-5-fluoro-3,4-dihydroxyphenyl)-2-(4-(2-((3-hydroxybenzyl)amino)-2-oxoethyl)-2,3-dioxopiperazine-1-carboxamido)acetamido)-7-fluoro-2-hydroxy-3,4-dihydro-2H-benzo[e][1,2]oxaborinine-8-carboxylic acid] are under 3.60, under 1 µg/mL, 8 to 16 µg/mL (≈ 10.7 to 21.5 µM), 8 to 16 µg/mL (≈ 10.7 to 21.5 µM) and 16 to 32 µg/mL (≈ 21.5 to 42.9 µM).
On the same counts, the results for `O=C(CN1CCN(C(=O)N[C@@H](C(=O)N[C@H]2Cc3ccc(F)c(C(=O)O)c3OB2O)c2cc(F)c(O)c(O)c2Cl)C(=O)C1=O)NCc1ccncc1` [Example 239, (R)-3-((R)-2-(2-chloro-5-fluoro-3,4-dihydroxyphenyl)-2-(2,3-dioxo-4-(2-oxo-2-((pyridin-4-ylmethyl)amino)ethyl)piperazine-1-carboxamido)acetamido)-7-fluoro-2-hydroxy-3,4-dihydro-2H-benzo[e][1,2]oxaborinine-8-carboxylic acid] are under 3.60, under 1 µg/mL, 2 to 4 µg/mL (≈ 2.74 to 5.47 µM), under 1 µg/mL and 16 to 32 µg/mL (≈ 21.9 to 43.8 µM).
With `O=C(CN1CCN(C(=O)NC(C(=O)N[C@H]2Cc3ccc(F)c(C(=O)O)c3OB2O)c2cc(F)c(O)c(O)c2Cl)C(=O)C1=O)NCc1cccnc1` (stereo partly drawn) [Example 240, (3R)-3-(2-(2-chloro-5-fluoro-3,4-dihydroxyphenyl)-2-(2,3-dioxo-4-(2-oxo-2-((pyridin-3-ylmethyl)amino)ethyl)piperazine-1-carboxamido)acetamido)-7-fluoro-2-hydroxy-3,4-dihydro-2H-benzo[e][1,2]oxaborinine-8-carboxylic acid], the pIC50 in assay [1] was under 3.60. The MIC in the assay on A. baumannii ATCC 17978 was under 1 µg/mL; in the assay on P. aeruginosa CDC-0054 it was under 1 µg/mL; with A. baumannii CDC-0045 it was 2 to 4 µg/mL (≈ 2.74 to 5.47 µM); in assay [2], 16 to 32 µg/mL (≈ 21.9 to 43.8 µM).
On to `O=C(CN1CCN(C(=O)N[C@@H](C(=O)N[C@H]2Cc3ccc(F)c(C(=O)O)c3OB2O)c2cc(F)c(O)c(O)c2Cl)C(=O)C1=O)NCc1nccs1` [Example 241, (R)-3-((R)-2-(2-chloro-5-fluoro-3,4-dihydroxyphenyl)-2-(2,3-dioxo-4-(2-oxo-2-((thiazol-2-ylmethyl)amino)ethyl)piperazine-1-carboxamido)acetamido)-7-fluoro-2-hydroxy-3,4-dihydro-2H-benzo[e][1,2]oxaborinine-8-carboxylic acid], for which the pIC50 in assay [1] is under 3.60. Also, the MIC with A. baumannii ATCC 17978 is under 1 µg/mL; in the assay on P. aeruginosa CDC-0054, under 1 µg/mL; in the assay with A. baumannii CDC-0045, 2 to 4 µg/mL (≈ 2.71 to 5.43 µM); in assay [2] it was 4 to 8 µg/mL (≈ 5.43 to 10.9 µM).
For the compound `O=C(NCCN1CCN(C(=O)NC(C(=O)N[C@H]2Cc3ccc(F)c(C(=O)O)c3OB2O)c2cc(F)c(O)c(O)c2Cl)C1=O)c1ccccc1` (stereo partly drawn) [Example 242, (3R)-3-(2-(3-(2-benzamidoethyl)-2-oxoimidazolidine-1-carboxamido)-2-(2-chloro-5-fluoro-3,4-dihydroxyphenyl)acetamido)-7-fluoro-2-hydroxy-3,4-dihydro-2H-benzo[e][1,2]oxaborinine-8-carboxylic acid], the pIC50 in assay [1] was under 3.60. In addition, the MIC in the assay on A. baumannii ATCC 17978 is under 1 µg/mL; in the assay with P. aeruginosa CDC-0054, 2 to 4 µg/mL (≈ 2.85 to 5.7 µM); with A. baumannii CDC-0045, under 1 µg/mL; in assay [2] it was 16 to 32 µg/mL (≈ 22.8 to 45.6 µM).
